The values below come from patent US20230091848A1, “DISEASE DETECTION AND TREATMENT BASED ON PHENYLACETYL GLUTAMINE LEVELS” (The Cleveland Clinic Foundation, priority 2020, published 2023).

Test [1] deals with FeCl3-induced carotid artery injury model. Kind of test: Carotid artery FeCl3 injury thrombosis assay. In kind it is in vivo, mice. As to conditions: i.p. injection 50 mg/kg; vs phenylalanine or saline. On the procedure: Briefly, rhodamine 6G (100 μL; 0.5 mg/mL) was injected directly into the right jugular vein to label platelets. The left carotid artery was exposed and injured by placing a FeCl3-soaked filter paper for 1 minute. […] Time to cessation of blood flow through clot formation for all studies was determined by visual inspection by two different investigators. End points were set as cessation of blood flow for 30 seconds to 30 minutes.

The subject of test [2] is washed human platelets. Kind of test: Intracellular Ca2+ in Fura 2 loaded washed platelets. Format: cell-based. As to conditions: sub-maximal (0.02 U) thrombin. How it is done:
To prepare washed platelets for intracellular Ca^2+ measurements, 100 nM prostaglandin E1 (PGE-1) was added to PRP and the PRP was then centrifuged at 500×g for 20 min at 22° C. […] For ratiometric fluorescence measurements, washed platelets were incubated with Fura 2-AM (1 μM) at 22° C. for 30 min. Excess Fura 2-AM was removed by centrifugation at 500×g for 30 min.

Test [3] concerns human platelet rich plasma (PRP). Put plainly: Platelet aggregometry in platelet rich plasma. In kind it is cell-based. The conditions noted are these: submaximal ADP. How it is done: ADP (up to 4 μM), TRAP6 (up to 10 μM) and collagen (up to 1.0 μg/mL) were used as indicated to initiate aggregation with constant stirring (600 rpm).

On to `O=C(O)CNC(=O)Cc1ccccc1` [PAGly, phenylacetylglycine], for which, in test [1], the “platelet thrombus formation within the injured carotid artery” value was “induced heightened platelet thrombus formation within the injured carotid artery” and the “time to cessation of flow (occlusion time)” value was “reduced the time to cessation of flow following injury”. The “thrombin-evoked augmentation of [Ca2+]i” value in test [2] was “provoked further rise in [Ca^2+]i in response to sub-maximal thrombin exposure”. Further, in test [3], the “ADP-stimulated platelet aggregation response” value is on record as “augmented stimulus (ADP) dependent platelet aggregation response”.
